Tests used:
Phosphodiesterase 4 [1] = target: T1, Phosphodiesterase 4 (Homo sapiens, UniProt P27815+Q08499+Q07343+Q08493); experiment: Percent inhibition of human neutrophil phosphodiesterase 4 at 10e-7 M; assay type: protein assay
Phosphodiesterase 4 [2] = target: T1, Phosphodiesterase 4; experiment: Percent inhibition of human Phosphodiesterase 4 at 10e-7 M; assay type: protein assay
Phosphodiesterase 4 [3] = target: T1, Phosphodiesterase 4; experiment: Inhibition of rolipram binding to PDE4 at 10e-5 M; assay type: protein assay
Phosphodiesterase 4 [4] = target: T1, Phosphodiesterase 4; experiment: Inhibition of rolipram binding to PDE4; assay type: protein assay
Rattus norvegicus [5] = species on record: Rattus norvegicus; experiment: In vitro and metabolic stability was determined; assay type: ADME
[6] = Oral bioavailability in rat; assay type: ADME, organism-based; settings: in vivo
Homo sapiens = species on record: Homo sapiens; experiment: Inhibition of TNF-alpha synthesis in human monocytes; assay type: functional, organism-based
Cavia porcellus [7] = experiment: Percent inhibition of eosinophil infiltration in the guinea pig at 30 uM/kg ip; assay type: functional
Rattus norvegicus [8] = species on record: Rattus norvegicus; experiment: Increased acid secretion in the isolated whole rat stomach; assay type: functional
Canis familiaris [9] = experiment: Emetic effect in dog after intravenous administration; assay type: functional; settings: Canis lupus familiaris
Phosphodiesterase 4 [10] = target: T1, Phosphodiesterase 4
Description: Inhibition of human Phosphodiesterase 4

Phosphodiesterase 4 [11] = target: T1, Phosphodiesterase 4; experiment: Inhibition of human neutrophil phosphodiesterase 4; assay type: protein assay
Phosphodiesterase 4 [12] = target: T1, Phosphodiesterase 4; experiment: Inhibition of human neutrophil Phosphodiesterase 4; assay type: protein assay
Phosphodiesterase 4 [13] = target: T1, Phosphodiesterase 4; experiment: Inhibition of rolipram binding to PDE4 at 10e-6 M; assay type: protein assay
Rattus norvegicus [14] = species on record: Rattus norvegicus; experiment: In vitro metabolic stability in rat hepatocytes; assay type: ADME, Hepatocyte
Cavia porcellus [15] = experiment: Percent inhibition of eosinophil infiltration in the guinea pig at 30 uM/kg (ip); assay type: functional
Canis familiaris [16] = experiment: Emetic effect in dog on intravenous administration; assay type: functional; settings: Canis lupus familiaris

Question: Which Inhibition (Phosphodiesterase 4 [1]) does the source give for `COc1ccc2c(Cc3c(Cl)cncc3Cl)nnc(-n3ccnc3)c2c1` here?
Answer: Its Inhibition is 17%.

Question: With `CCCNc1nnc(Cc2c(Cl)cncc2Cl)c2ccc(OC)cc12` as the molecule, how does the Inhibition (Phosphodiesterase 4 [2]) read?
Answer: Its Inhibition is 19%.

Question: With `CCc1nnc(Cc2c(Cl)cncc2Cl)c2ccc(OC)cc12` as the molecule, how does the Inhibition (Phosphodiesterase 4 [2]) read?
Answer: The Inhibition was 23%.

Question: Which Inhibition (Phosphodiesterase 4 [2]) does the source give for `COc1ccc2c(Cc3c(Cl)cncc3Cl)nnc(CCCCc3ccccc3)c2c1` here?
Answer: Its Inhibition is 19%.

Question: With `COc1ccc2c(Cc3c(Cl)cncc3Cl)nncc2c1` as the molecule, how does the Inhibition (Phosphodiesterase 4 [3]) read?
Answer: Its Inhibition is 42%.

Question: Which Ki (Phosphodiesterase 4 [4]) does the source give for `COc1ccc2c(Cc3c(Cl)cncc3Cl)nnc(-c3ccccc3)c2c1` here?
Answer: The Ki was 271 nM.

Question: What about the “Met. stab. Cl. int” value (Rattus norvegicus [5]) of the same molecule?
Answer: Its value is 5.8 ul min-1 (10e6*cells)-1.

Question: And the bioavailability [6]?
Answer: The bioavailability was 27%.

Question: What about the IC50 (Homo sapiens) of the same molecule?
Answer: The IC50 was 46 nM.

Question: What about the Inhibition (Cavia porcellus [7]) of the same molecule?
Answer: The Inhibition was 34%.

Question: And the IC50 (Rattus norvegicus [8])?
Answer: Its IC50 is 4000 nM.

Question: What about the ED50 (Canis familiaris [9]) of the same molecule?
Answer: The ED50 was greater than 30 µmol/kg.

Question: What about the IC50 (Phosphodiesterase 4 [10]) of the same molecule?
Answer: Its IC50 is 37 nM.

Question: With `COc1ccc2c(Cc3c(Cl)cncc3Cl)nnc(Oc3ccccc3)c2c1` as the molecule, how does the Ki (Phosphodiesterase 4 [4]) read?
Answer: The Ki was 436 nM.

Question: What about the IC50 (Phosphodiesterase 4 [11]) of the same molecule?
Answer: Its IC50 is 132 nM.

Question: And the IC50 (Homo sapiens)?
Answer: The IC50 was 166 nM.

Question: Which Ki (Phosphodiesterase 4 [4]) does the source give for `C#Cc1nnc(Cc2c(Cl)cncc2Cl)c2ccc(OC)cc12` here?
Answer: Its Ki is 204 nM.

Question: And the IC50 (Homo sapiens)?
Answer: Its IC50 is 87 nM.

Question: What about the IC50 (Phosphodiesterase 4 [10]) of the same molecule?
Answer: The IC50 was 93 nM.

Question: With `COc1ccc2c(Cc3c(Cl)cncc3Cl)nnc(N(C)C)c2c1` as the molecule, how does the Inhibition (Phosphodiesterase 4 [2]) read?
Answer: The Inhibition was 39%.

Question: Which Inhibition (Phosphodiesterase 4 [2]) does the source give for `COc1ccc2c(Cc3c(Cl)cncc3Cl)nnc(N3CCN(C)CC3)c2c1` here?
Answer: The Inhibition was 16%.

Question: With `COc1ccc2c(Cc3c(Cl)cncc3Cl)nnc(N3CCCC3=O)c2c1` as the molecule, how does the Inhibition (Phosphodiesterase 4 [1]) read?
Answer: Its Inhibition is 6%.

Question: Which results are given for `COc1ccc2c(Cc3c(Cl)cncc3Cl)nnc(N3CCOCC3)c2c1`?
Answer: Ki (Phosphodiesterase 4 [4]): 452 nM; IC50 (Homo sapiens): 62 nM; IC50 (Phosphodiesterase 4 [12]): 132 nM

Question: For `COc1ccc2c(Cc3c(Cl)cncc3Cl)nncc2c1OC1CCCC1`, which IC50 (Homo sapiens) is on record?
Answer: Its IC50 is 224 nM.

Question: With `COc1ccc2c(Cc3c(Cl)cncc3Cl)nnc(-c3nccs3)c2c1` as the molecule, how does the Ki (Phosphodiesterase 4 [4]) read?
Answer: Its Ki is 34 nM.

Question: What about the IC50 (Homo sapiens) of the same molecule?
Answer: The IC50 was 8 nM.

Question: What about the IC50 (Phosphodiesterase 4 [10]) of the same molecule?
Answer: Its IC50 is 14 nM.

Question: Which results are given for `COc1ccc2c(Cc3c(Cl)cncc3Cl)nnc(N3CCCC3)c2c1`?
Answer: Ki (Phosphodiesterase 4 [4]): 89 nM; IC50 (Homo sapiens): 9 nM; IC50 (Phosphodiesterase 4 [10]): 38 nM

Question: For `COc1ccc2c(Cc3c(Cl)c[n+]([O-])cc3Cl)nnc(-c3nccs3)c2c1`, which Ki (Phosphodiesterase 4 [4]) is on record?
Answer: Its Ki is 17 nM.

Question: And the IC50 (Homo sapiens)?
Answer: Its IC50 is 3 nM.

Question: And the IC50 (Phosphodiesterase 4 [10])?
Answer: Its IC50 is 4 nM.

Question: Which results are given for `COc1ccc2c(Cc3c(Cl)cncc3Cl)nnc(C#Cc3ccccc3)c2c1`?
Answer: IC50 (Homo sapiens): 273 nM; Inhibition (Phosphodiesterase 4 [13]): 21%; IC50 (Phosphodiesterase 4 [10]): 48 nM

Question: With `COc1ccc2c(Cc3c(Cl)cncc3Cl)nnc(-n3cncn3)c2c1` as the molecule, how does the Ki (Phosphodiesterase 4 [4]) read?
Answer: Its Ki is 241 nM.

Question: What about the “Met. stab. Cl. int” value (Rattus norvegicus [14]) of the same molecule?
Answer: The value was 1.5 ul min-1 (10e6*cells)-1.

Question: What about the bioavailability [6] of the same molecule?
Answer: Its bioavailability is 27%.

Question: And the IC50 (Phosphodiesterase 4 [11])?
Answer: The IC50 was 72 nM.

Question: What about the IC50 (Homo sapiens) of the same molecule?
Answer: The IC50 was 72 nM.

Question: What about the Inhibition (Cavia porcellus [15]) of the same molecule?
Answer: The Inhibition was 37%.

Question: And the IC50 (Rattus norvegicus [8])?
Answer: Its IC50 is greater than 30000 nM.

Question: And the Inhibition (Rattus norvegicus [8])?
Answer: The Inhibition was 33%.

Question: And the ED50 (Canis familiaris [9])?
Answer: Its ED50 is greater than 30 µmol/kg.

Question: Which “Met. stab. Cl. int” value (Rattus norvegicus [14]) does the source give for `COc1ccc([C@]2(C#N)CC[C@@H](C(=O)O)CC2)cc1OC1CCCC1` [CILOMILAST] here?
Answer: Its value is 9.2 ul min-1 (10e6*cells)-1.

Question: What about the bioavailability [6] of the same molecule?
Answer: The bioavailability was 35%.

Question: What about the IC50 (Homo sapiens) of the same molecule?
Answer: Its IC50 is 158 nM.

Question: And the Inhibition (Cavia porcellus [15])?
Answer: The Inhibition was 17%.

Question: What about the ED50 (Canis familiaris [16]) of the same molecule?
Answer: The ED50 was 10 µmol/kg.

Question: What about the IC50 (Rattus norvegicus [8]) of the same molecule?
Answer: The IC50 was 1000 nM.

Source: ChEMBL document CHEMBL1134046, “Phthalazine PDE4 inhibitors. Part 2: the synthesis and biological evaluation of 6-methoxy-1,4-disubstituted derivatives” (Bioorg Med Chem Lett, 2001)
